Assay results as given in patent publication US20230107195A1, “TREATMENT OF CANCER WITH SMG1-INHIBITORS” (Celgene Corporation, priority 2017, published 2023).
“Also recorded” adds a separate entry of the source.

What was measured:
[1] = biological target: T1, SMG1 (Homo sapiens, UniProt Q96Q15); assay: Western blot for marker of SMG1 inhibition (pATM/ATR substrate band colocalizing with UPF1) in HCT-116 cells; type: cell-based; details: parental and DNAPK−/− HCT116 cells
T1 construct: endogenous in cells; host or cells: HCT-116 parental and HCT-116 DNA-PK-/- cells
Excerpt: SDS-PAGE and Western blot: Equal amounts of protein were subjected to SDS-PAGE using 3-8% tris-acetate protein gels (Thermo Fisher Scientific #A03755BOX, for DNA-PK, SMG1 and vinculin detection) and 4-12% bis-tris protein gels (Thermo Fisher Scientific #NP0323BOX, for phospho-(Ser/Thr) ATM/ATR substrate, UPF1, GAPDH, S6, phospho-4E-BP1, and cofilin detection). Proteins were electrophoretically transferred to 0.2 μm nitrocellulose membranes (Thermo Fisher Scientific #LC2000) and blocked for 1 hour with Odyssey Blocking Buffer TBS (LI-COR #927-50000). Membranes from 3-8% tris-acetate gels were incubated overnight with antibodies against total DNA-PK (Cell Signaling #12311), phospho DNA-PK (Ser2056) (Abcam #ab124918), total SMG1 (Cell Signaling #9149) and vinculin (Sigma #V9264). Membranes from 4-12% bis-tris gels were incubated overnight with antibodies against phospho-(Ser/Thr) ATM/ATR substrate (Cell Signaling #2851), total UPF1 (Sigma #SAB 1402893), GAPDH (Santa Cruz #47724), total S6 Ribosomal Protein (Santa Cruz #74459), phosphoS6 Ribosomal Protein (Ser240/244) (Cell Signaling #5364), phospho-4E-BP1 (Thr70) (Cell Signaling #9455), and cofilin (Santa Cruz #376476). Membranes were washed with TBST and incubated with IRDye 800CW Goat anti-Rabbit IgG (LI-COR #926-32211) and IRDye 680LT Goat anti-Mouse IgG (LI-COR #926-68020) secondary antibodies for 1 hour. […]

[2] = biological target: T2, DNA-PK (Homo sapiens, UniProt P78527); assay: ActivX KiNativ assay (probe binding, LC-MS); details: 0.3 μM and 1.0 μM dose, 1 h, four different cell lines
T2 construct: lysates were prepared from cell pellets and incubated with ADP and ATP probes; endogenous in cells
Procedure: (§1) After 1 h, the medium was aspirated; cells were rinsed once with ice cold PBS, scraped off and transferred to a 15 ml conical tube. Cells were pelleted by centrifugation, the supernatant was discarded and pellets were frozen on dry ice and stored at −80° C. KiNativ assay: Briefly, lysates were prepared from cell pellets and incubated with ADP and ATP probes. After a tryptic digest, the probe labeled peptides were characterized and quantified using targeted Liquid Chromatography-Mass Spectrometry (LC-MS). Percent inhibition is defined as the reduction of probe binding in the presence of compound, indicating binding of the compound to the kinase.

[3] = biological target: T1, SMG1; assay: ActivX KiNativ assay (probe binding, LC-MS); details: 0.3 μM and 1.0 μM dose, 1 h, four different cell lines
Procedure: as §1

[4] = biological target: T3, TORK (Homo sapiens, UniProt P42345); assay: ActivX KiNativ assay (probe binding, LC-MS); parameters: lysates were prepared from cell pellets and incubated with ADP and ATP probes; endogenous in cells; details: 0.3 μM and 1.0 μM dose, 1 h, four different cell lines
[5] = biological target: T3, TORK; assay: Western blot for markers of TORK inhibition (pS6 and p4EBP1) in HCT-116 cells; type: cell-based; details: parental and DNAPK−/− HCT116 cells

T1 sequence (Q96Q15 whole entry): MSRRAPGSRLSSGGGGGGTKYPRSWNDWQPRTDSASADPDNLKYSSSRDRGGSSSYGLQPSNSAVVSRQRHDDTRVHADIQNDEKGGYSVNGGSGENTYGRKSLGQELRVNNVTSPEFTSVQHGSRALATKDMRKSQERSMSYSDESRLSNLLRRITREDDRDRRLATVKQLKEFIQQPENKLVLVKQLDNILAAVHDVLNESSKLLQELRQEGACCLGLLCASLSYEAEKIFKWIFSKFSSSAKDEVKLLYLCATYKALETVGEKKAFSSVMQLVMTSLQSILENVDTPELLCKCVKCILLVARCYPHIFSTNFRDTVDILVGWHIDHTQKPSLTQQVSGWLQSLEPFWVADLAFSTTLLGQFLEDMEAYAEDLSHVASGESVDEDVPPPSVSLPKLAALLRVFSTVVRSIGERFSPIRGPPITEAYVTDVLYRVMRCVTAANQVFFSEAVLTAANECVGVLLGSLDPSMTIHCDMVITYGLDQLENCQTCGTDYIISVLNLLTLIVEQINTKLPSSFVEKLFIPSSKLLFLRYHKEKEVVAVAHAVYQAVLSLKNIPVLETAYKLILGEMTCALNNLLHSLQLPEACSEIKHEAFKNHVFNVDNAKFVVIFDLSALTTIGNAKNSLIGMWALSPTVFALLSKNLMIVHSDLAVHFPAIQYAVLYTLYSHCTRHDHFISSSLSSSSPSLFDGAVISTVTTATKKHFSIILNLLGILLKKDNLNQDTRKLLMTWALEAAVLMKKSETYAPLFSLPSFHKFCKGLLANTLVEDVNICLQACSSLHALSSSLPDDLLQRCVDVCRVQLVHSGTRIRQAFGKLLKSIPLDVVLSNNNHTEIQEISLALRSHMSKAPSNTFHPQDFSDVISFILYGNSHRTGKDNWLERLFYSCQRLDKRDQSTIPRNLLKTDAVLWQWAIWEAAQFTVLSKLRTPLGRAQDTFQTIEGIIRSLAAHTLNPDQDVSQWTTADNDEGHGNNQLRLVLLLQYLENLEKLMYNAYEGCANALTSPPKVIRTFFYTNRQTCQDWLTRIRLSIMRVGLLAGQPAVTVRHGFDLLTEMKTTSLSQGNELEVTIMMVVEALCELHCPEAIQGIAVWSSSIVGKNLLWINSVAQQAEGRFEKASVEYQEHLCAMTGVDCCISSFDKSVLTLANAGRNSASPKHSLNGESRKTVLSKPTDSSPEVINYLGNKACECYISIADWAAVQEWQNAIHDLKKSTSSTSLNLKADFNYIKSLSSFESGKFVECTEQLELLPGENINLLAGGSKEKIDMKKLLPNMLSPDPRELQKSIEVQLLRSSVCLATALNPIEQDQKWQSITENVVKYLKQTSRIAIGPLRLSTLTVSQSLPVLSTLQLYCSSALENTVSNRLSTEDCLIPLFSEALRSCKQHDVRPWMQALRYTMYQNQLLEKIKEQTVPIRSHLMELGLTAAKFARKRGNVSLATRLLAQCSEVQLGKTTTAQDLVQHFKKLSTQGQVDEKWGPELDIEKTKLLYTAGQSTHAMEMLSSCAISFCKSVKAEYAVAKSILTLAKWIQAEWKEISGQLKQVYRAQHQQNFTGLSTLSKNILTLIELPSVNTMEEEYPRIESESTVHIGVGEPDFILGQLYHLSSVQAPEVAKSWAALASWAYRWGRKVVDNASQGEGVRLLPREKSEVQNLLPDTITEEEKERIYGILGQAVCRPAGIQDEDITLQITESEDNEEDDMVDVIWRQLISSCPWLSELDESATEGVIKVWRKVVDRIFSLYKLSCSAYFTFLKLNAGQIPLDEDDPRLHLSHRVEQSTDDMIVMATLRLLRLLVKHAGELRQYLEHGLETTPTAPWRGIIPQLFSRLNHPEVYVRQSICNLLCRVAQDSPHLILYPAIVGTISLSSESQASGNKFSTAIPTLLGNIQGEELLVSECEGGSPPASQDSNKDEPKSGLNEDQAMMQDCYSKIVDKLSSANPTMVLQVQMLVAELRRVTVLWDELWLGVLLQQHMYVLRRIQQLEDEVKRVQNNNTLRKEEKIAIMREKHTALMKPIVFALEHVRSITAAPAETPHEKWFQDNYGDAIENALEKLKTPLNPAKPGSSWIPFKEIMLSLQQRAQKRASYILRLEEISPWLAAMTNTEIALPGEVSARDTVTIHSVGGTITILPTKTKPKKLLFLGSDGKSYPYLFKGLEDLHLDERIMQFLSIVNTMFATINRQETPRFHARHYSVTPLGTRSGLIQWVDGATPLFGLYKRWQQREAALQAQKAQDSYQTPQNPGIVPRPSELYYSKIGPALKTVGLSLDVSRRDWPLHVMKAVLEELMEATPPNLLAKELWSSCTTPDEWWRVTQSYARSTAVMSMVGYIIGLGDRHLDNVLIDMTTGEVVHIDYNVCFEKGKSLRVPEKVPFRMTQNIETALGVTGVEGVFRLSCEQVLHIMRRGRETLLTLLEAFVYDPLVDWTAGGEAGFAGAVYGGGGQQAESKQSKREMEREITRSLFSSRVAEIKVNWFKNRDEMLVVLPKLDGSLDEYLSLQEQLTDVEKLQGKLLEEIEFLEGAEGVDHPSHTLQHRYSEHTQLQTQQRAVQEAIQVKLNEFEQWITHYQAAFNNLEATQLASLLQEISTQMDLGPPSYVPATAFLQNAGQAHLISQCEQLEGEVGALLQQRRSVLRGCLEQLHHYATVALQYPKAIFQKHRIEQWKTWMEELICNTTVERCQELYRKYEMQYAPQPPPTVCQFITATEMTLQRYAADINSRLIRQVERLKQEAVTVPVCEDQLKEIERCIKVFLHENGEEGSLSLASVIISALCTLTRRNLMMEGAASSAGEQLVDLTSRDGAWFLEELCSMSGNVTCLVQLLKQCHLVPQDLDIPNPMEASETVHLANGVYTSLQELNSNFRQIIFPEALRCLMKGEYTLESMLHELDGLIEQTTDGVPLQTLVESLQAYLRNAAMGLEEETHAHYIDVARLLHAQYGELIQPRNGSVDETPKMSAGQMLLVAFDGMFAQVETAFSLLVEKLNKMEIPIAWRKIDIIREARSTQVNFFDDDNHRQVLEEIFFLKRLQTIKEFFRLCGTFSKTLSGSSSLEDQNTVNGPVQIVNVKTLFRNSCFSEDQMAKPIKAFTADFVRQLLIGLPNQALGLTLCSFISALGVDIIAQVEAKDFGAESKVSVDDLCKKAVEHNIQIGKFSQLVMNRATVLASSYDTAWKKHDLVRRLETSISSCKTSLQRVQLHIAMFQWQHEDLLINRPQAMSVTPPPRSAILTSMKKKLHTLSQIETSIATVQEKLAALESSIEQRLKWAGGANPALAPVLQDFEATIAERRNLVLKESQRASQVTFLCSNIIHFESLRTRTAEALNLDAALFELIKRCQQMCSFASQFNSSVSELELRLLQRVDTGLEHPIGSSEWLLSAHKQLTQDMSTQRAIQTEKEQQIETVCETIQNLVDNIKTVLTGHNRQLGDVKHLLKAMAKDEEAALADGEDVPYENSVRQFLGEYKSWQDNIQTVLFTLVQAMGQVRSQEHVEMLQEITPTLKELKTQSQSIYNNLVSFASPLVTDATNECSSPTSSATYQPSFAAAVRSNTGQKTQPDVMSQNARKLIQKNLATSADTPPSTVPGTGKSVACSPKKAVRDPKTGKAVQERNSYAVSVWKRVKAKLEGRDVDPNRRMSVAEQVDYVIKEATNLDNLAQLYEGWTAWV

In the case of CO[C@H]1CC[C@H](N2C(=O)CNc3ncc(-c4ccc(C(C)(C)O)nc4)nc32)CC1 [Compound 2, 7-(6-(2-hydroxypropan-2-yl)pyridin-3-yl)-1-((trans)-4-methoxycyclohexyl)-3,4-dihydropyrazino[2,3-b]pyrazin-2(1H)-one], the “marker of SMG1 inhibition (pATM/ATR substrate, pUPF1)” value [1] is reported as “binds to TORK (pS6 and p4EBP1) only; also recorded: not by Compound 2”, the “binding to DNA-PK (% inhibition of probe binding)” value [2] is reported as “only binds TORK” and the “binding to SMG1 (% inhibition of probe binding)” value [3] is reported as “only binds TORK”. For the same molecule, the “binding to TORK (% inhibition of probe binding)” value [4] was “only binds TORK” and the “markers of TORK inhibition (pS6 and p4EBP1)” value [5] was “binds to TORK (pS6 and p4EBP1) only; also recorded: reduced”.
